Read-outs that look alike come from different tables or passages of the source.
Assay: Pharmacokinetic experiments in rats (IV, oral suspension, oral solution)
Assay type: in vivo
Conditions: male, rat, plasma; for bioavailability: adjusted for dose, read-out: Bioavailability
Method: The oral suspension formulation was prepared by suspending the test article in 5% PEG-200/95% of a 0.5% solution of methylcellulose. The concentration of the test article was such that a dosing volume of 10 mL/kg delivered the intended dose level. The oral solution formulations of NVX-144 and NVX-412 were prepared by dissolving the test article in 10% by volume dimethyl acetamide, followed by 60% by volume PEG-400, and then adding slowly a solution of 30% Captisol® in 50 mM lactic acid to provide the remaining 30% of volume. The concentration of the test article was such that a dosing volume of 10 mL/kg delivered the intended dose level. The IV formulation of NVX-412 was prepared by dissolving the test article in 10% by volume dimethyl acetamide, followed by 10% by volume PEG-400, and then adding slowly a solution of 10% Captisol® in 50 mM lactic acid to provide the remaining 80% of volume. The concentration of the test articles was such that a dosing volume of 2.5 mL/kg delivered the intended dose level. The doses administered were based on the body weight of each animal taken shortly before dosing. The formulations were used immediately after preparation.
A total of 15 rats were assigned to the study. Five groups of three male rats each comprised the study. Each group was treated once by oral gavage or intravenous injection via the tail vein as specified in Table 3 below.
The animals were fasted overnight prior to dosing and the feed returned approximately 2 hours post-dosing. The dose for each animal was based on the most recent body weight. Oral doses were administered by gavage. Animals received 10 mL/kg per single oral dose. Intravenous doses were administered by tail vein injection. The dose for each animal was based on the most recent body weight. Animals were dosed at 2.5 mL/kg per single intravenous dose.
Blood was collected from the animals in Groups 1 through 5 for pharmacokinetic analysis. Approximately 0.3 mL of blood was collected in potassium EDTA tubes via the orbital plexus at four time points (30 minutes, 1 hour, 4 hours, and 8 hours post-dose) from each rat treated by the oral route, and the blood samples were processed to prepare plasma. Blood was collected at four time points (5 minutes, 30 minutes, 1 hour, and 2 hours post-dose) from each rat treated by the intravenous route, and the blood samples were processed to prepare plasma. Animals were terminated (without necropsy) following their final sample collection.
The whole blood samples were centrifuged (˜1500×g) for a minimum of 10 minutes in a refrigerated centrifuge (set at ˜5° C.). Plasma was prepared and transferred within 30 minutes of blood collection/centrifugation to appropriately labeled tubes. The tubes were then frozen and stored in the dark at ≦−70° C. until analysis. The plasma samples were analyzed by LC-MS/MS to determine the plasma concentrations of NVX-144 and NVX-412. Pharmacokinetic analysis of the plasma concentration data was conducted using non-compartmental analysis with WinNonlin Version 4.1.

[1] = iv, 5 mg/kg, IV 5 mg/kg, Mean of 3
[2] = iv, 5 mg/kg, IV 5 mg/kg, individual animals
[3] = oral, 20 mg/kg, Group 5, PO-Solution 20 mg/kg, Mean
[4] = po, 20 mg/kg, Group 3, PO-Suspension 20 mg/kg, individual animals
[5] = po, 20 mg/kg, Group 5, PO-Solution 20 mg/kg, Mean N=3

## O=C(NNc1nc2cc(F)ccc2n2cccc12)c1cnccn1.O=C(O)C(=O)O [NVX-412, N′-(7-fluoropyrrolo[1,2a]quinoxalin-4-yl)pyrazine-2-carbohydrazide oxalic acid co-crystal]
[1]
  concentration at 0.083 h: 1840 ng/mL
  concentration at 2 h: 165 ng/mL
  AUC: 1070 ng·h/mL
  AUC(0-inf): 1310 ng·h/mL
  clearance: 63.4 mL/min/kg
[2]
  concentration at 0.083 h: 1810 ng/mL
  concentration at 2 h: 167 ng/mL
  AUC: 1070 ng·h/mL
  AUC(0-inf): 1320 ng·h/mL
  clearance: 63.3 mL/min/kg
iv, 5 mg/kg, IV 5 mg/kg, 0.5 h, Mean of 3
  concentration at 0.5 h: 477 ng/mL
iv, 5 mg/kg, IV 5 mg/kg, 0.5 h, individual animals
  concentration at 0.5 h: 488 ng/mL
iv, 5 mg/kg, IV 5 mg/kg, 1 h, Mean of 3
  concentration at 1 h: 273 ng/mL
iv, 5 mg/kg, IV 5 mg/kg, 1 h, individual animals
  concentration at 1 h: 288 ng/mL
iv, 5 mg/kg, IV 5 mg/kg, Mean of 3, read-out: Cmax
  Cmax: 1840 ng/mL
iv, 5 mg/kg, IV 5 mg/kg, Mean of 3, read-out: T ½ (converted)
  half-life: 1 h
iv, 5 mg/kg, IV 5 mg/kg, Mean of 3, read-out: Tmax
  Tmax: 0.083 h
iv, 5 mg/kg, IV 5 mg/kg, Mean of 3, read-out: Vss
  Vd: 3.98 L/kg
iv, 5 mg/kg, IV 5 mg/kg, individual animals, read-out: Cmax
  Cmax: 1810 ng/mL
iv, 5 mg/kg, IV 5 mg/kg, individual animals, read-out: T ½ (converted)
  half-life: 1.01 h
iv, 5 mg/kg, IV 5 mg/kg, individual animals, read-out: Tmax
  Tmax: 0.08 h
iv, 5 mg/kg, IV 5 mg/kg, individual animals, read-out: Vss
  Vd: 3.96 L/kg
iv, 5 mg/kg, administered intravenously, range over animals, read-out: terminal plasma half-life
  half-life: 0.93 to 1.15 h
oral, 20 mg/kg, Group 3, PO-Suspension 20 mg/kg, 0.5 hr, Mean
  concentration at 0.5 h: 487 ng/mL
oral, 20 mg/kg, Group 3, PO-Suspension 20 mg/kg, 0.5 hr, individual animals
  concentration at 0.5 h: 499 ng/mL
oral, 20 mg/kg, Group 3, PO-Suspension 20 mg/kg, 1 hr, Mean
  concentration at 1 h: 525 ng/mL
oral, 20 mg/kg, Group 3, PO-Suspension 20 mg/kg, 1 hr, individual animals
  concentration at 1 h: 525 ng/mL
oral, 20 mg/kg, Group 3, PO-Suspension 20 mg/kg, Mean
  concentration at 4 h: 257 ng/mL
oral, 20 mg/kg, Group 3, PO-Suspension 20 mg/kg, individual animals
  concentration at 4 h: 341 ng/mL
oral, 20 mg/kg, Group 3, PO-Suspension 20 mg/kg, Mean, only 2 replicates available
  concentration at 8 h: 9.27 ng/mL
oral, 20 mg/kg, Group 5, PO-Solution 20 mg/kg, 0.5 hr, Mean
  concentration at 0.5 h: 626 ng/mL
oral, 20 mg/kg, Group 5, PO-Solution 20 mg/kg, 0.5 hr, individual animals
  concentration at 0.5 h: 732 ng/mL
oral, 20 mg/kg, Group 5, PO-Solution 20 mg/kg, 1 hr, Mean
  concentration at 1 h: 601 ng/mL
oral, 20 mg/kg, Group 5, PO-Solution 20 mg/kg, 1 hr, individual animals
  concentration at 1 h: 628 ng/mL
[3]
  concentration at 4 h: 243 ng/mL
  concentration at 8 h: 16.2 ng/mL
oral, 20 mg/kg, Group 5, PO-Solution 20 mg/kg, individual animals
  concentration at 4 h: 259 ng/mL
po, 20 mg/kg, Group 3, PO-Suspension 20 mg/kg, Mean N=2
  AUC(0-inf): 2310 ng·h/mL
po, 20 mg/kg, Group 3, PO-Suspension 20 mg/kg, Mean N=2, read-out: T ½ (converted)
  half-life: 1.2 h
po, 20 mg/kg, Group 3, PO-Suspension 20 mg/kg, Mean N=2, versus mean IV AUCINF
  bioavailability: 43.9%
po, 20 mg/kg, Group 3, PO-Suspension 20 mg/kg, Mean N=3
  AUC: 2070 ng·h/mL
po, 20 mg/kg, Group 3, PO-Suspension 20 mg/kg, Mean N=3, read-out: Cmax
  Cmax: 525 ng/mL
po, 20 mg/kg, Group 3, PO-Suspension 20 mg/kg, Mean N=3, read-out: Tmax
  Tmax: 1 h
[4]
  AUC: 2390 ng·h/mL
  AUC(0-inf): 2410 ng·h/mL
po, 20 mg/kg, Group 3, PO-Suspension 20 mg/kg, individual animals, read-out: Cmax
  Cmax: 525 ng/mL
po, 20 mg/kg, Group 3, PO-Suspension 20 mg/kg, individual animals, read-out: T ½ (converted)
  half-life: 1.28 h
po, 20 mg/kg, Group 3, PO-Suspension 20 mg/kg, individual animals, read-out: Tmax
  Tmax: 1 h
po, 20 mg/kg, Group 3, PO-Suspension 20 mg/kg, individual animals, versus mean IV AUCINF
  bioavailability: 45.9%
[5]
  AUC: 2250 ng·h/mL
  AUC(0-inf): 2290 ng·h/mL
po, 20 mg/kg, Group 5, PO-Solution 20 mg/kg, Mean N=3, read-out: Cmax
  Cmax: 643 ng/mL
po, 20 mg/kg, Group 5, PO-Solution 20 mg/kg, Mean N=3, read-out: T ½ (converted)
  half-life: 1.4 h
po, 20 mg/kg, Group 5, PO-Solution 20 mg/kg, Mean N=3, read-out: Tmax
  Tmax: 0.67 h
po, 20 mg/kg, Group 5, PO-Solution 20 mg/kg, Mean N=3, versus mean IV AUCINF
  bioavailability: 43.5%
